According to ChEMBL document CHEMBL4118250, “Discovery of Novel Pyrazole-Based Selective Aldosterone Synthase (CYP11B2) Inhibitors: A New Template to Coordinate the Heme-Iron Motif of CYP11B2” (J Med Chem, 2018):

How the values were obtained:
Cynomolgus monkey [1] = test: Time at which maximum plasma concentration stays above in vitro human CYP11B2 IC50 in cynomolgus monkey at 3 mg/kg, po administered as single dose by LC-MS/MS analysis; type: ADME, organism-based, Macaca fascicularis; conditions: in vivo
[2] = Solubility of the compound; type: physicochemical
[3] = Apparent passive permeability in human Caco2 cells; type: ADME, cell-based; conditions: Caco-2
Cynomolgus monkey [4] = test: Time at which maximum plasma concentration stays below in vitro human CYP11B2 IC50 in cynomolgus monkey at 3 mg/kg, po administered as single dose by LC-MS/MS analysis; type: ADME, organism-based, Macaca fascicularis; conditions: in vivo
[5] = Tmax in cynomolgus monkey at 1 mg/kg, po administered as single dose by LC-MS/MS analysis; type: ADME, organism-based, Macaca fascicularis; conditions: in vivo

Time (Cynomolgus monkey [1])	solubility [2]	Papp [3]	Time (Cynomolgus monkey [4])	Tmax [5]	Compound
8 h	Soluble	68.4 ×10⁻⁶ cm/s	24 h	–	Cc1cc(C#N)ccc1-c1cnn2c1C[C@@H](O)C2
–	–	62.3 ×10⁻⁶ cm/s	–	4 h	Cc1cc(C#N)ccc1-c1cnn2c1C[C@@H](Oc1ncc(F)cn1)C2
